Results published in ChEMBL document CHEMBL1141090, “Rational design, synthesis, and characterization of novel inhibitors for human beta1,4-galactosyltransferase” (J Med Chem, 2005).

Key:
[1] = target: T1, Beta-1,4-galactosyltransferase 1 (Homo sapiens, UniProt P15291); assay: Inhibitory constant against human recombinant Beta-1,4-galactosyltransferase I; N.I. is inactive
T1 sequence (P15291 whole entry): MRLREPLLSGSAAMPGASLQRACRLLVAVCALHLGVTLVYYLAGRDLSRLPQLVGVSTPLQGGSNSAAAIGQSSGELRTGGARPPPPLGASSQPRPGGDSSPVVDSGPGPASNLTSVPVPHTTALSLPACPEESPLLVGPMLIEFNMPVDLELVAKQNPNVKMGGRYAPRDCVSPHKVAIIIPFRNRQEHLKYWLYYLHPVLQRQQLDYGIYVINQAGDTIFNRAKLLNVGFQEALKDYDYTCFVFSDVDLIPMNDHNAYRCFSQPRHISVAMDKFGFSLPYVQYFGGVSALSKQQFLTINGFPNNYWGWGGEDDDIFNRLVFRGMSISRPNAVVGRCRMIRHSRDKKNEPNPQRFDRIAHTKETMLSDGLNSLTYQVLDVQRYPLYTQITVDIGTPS

[2] = target: T1, Beta-1,4-galactosyltransferase 1; assay: Inhibitory constant against human Beta-1,4-galactosyltransferase I; N.I. is inactive

Row | Ki [1] | Ki [2] | SMILES
1 | Not Active |  | O=c1ccn([C@@H]2O[C@H](COP(=O)(O)OP(=O)(O)O[C@H]3O[C@@H](CNCc4cccc5ccccc45)[C@H](O)[C@H](O)[C@@H]3O)[C@@H](O)[C@H]2O)c(=O)[nH]1
2 |  | Not Active | O=c1ccn([C@@H]2O[C@H](COP(=O)(O)OP(=O)(O)O[C@H]3O[C@@H](CNCCCCCCOCc4ccc5ccccc5c4)[C@H](O)[C@H](O)[C@@H]3O)[C@@H](O)[C@H]2O)c(=O)[nH]1
